Assay results taken from patent US6696456B1, “Beta disubstituted metalloprotease inhibitors” (The Procter & Gamble Company, priority 1999, dated 2004).

Columns and labels:
[1] = test system: human subject suffering from rheumatoid arthritis; assay: Example A: oral tablet treatment of a subject with rheumatoid arthritis; assay type: in vivo; conditions: tablet with 15 mg compound, three tablets per day orally for 2 years, 60 kg human
Method: A tablet composition for oral administration, according to the present invention, is made comprising:
A human subject weighing 60 kg (132 lbs), suffering from rheumatoid arthritis, is treated by a method of this invention. Specifically, for 2 years, a regimen of three tablets per day is administered orally to said subject.

[2] = test system: human subject suffering from osteoarthritis; assay: Example B: oral capsule treatment of a subject with osteoarthritis; assay type: in vivo; conditions: capsule with 70 mg compound daily for 5 years, 90 kg human
Method: A capsule for oral administration, according to the present invention, is made comprising:
A human subject weighing 90 kg (198 lbs.), suffering from osteoarthritis, is treated by a method of this invention. Specifically, for 5 years, the above capsule, which contains 70 mg of the compound of Example 4, is administered daily to said subject.

With `COc1ccc(-c2ccc(S(=O)(=O)N[C@@H](C(=O)O)[C@H](OCc3ccc(C)cc3)c3nccs3)cc2)cc1` [Example 1, (2R,3S)-2-(4′ -Methoxy-biphenyl-4-sulfonylamino)-3-(4-methyl-benzyloxy)-3-thiazol-2-yl-propionic Acid] the “inflammation, mobility and pain at the end of the treatment period” value [1] was “reduced inflammation and improved mobility without concomitant pain”.

For `CCS[C@H](c1ccccc1)[C@@H](NS(=O)(=O)c1ccc(-c2ccc(F)cc2)cc1)C(=O)O` [Example 4, (2S,3R)-3-Ethylsulfanyl-2-(4′-fluoro-biphenyl-4-sulfonylamino)-3-phenyl-propionic Acid], the “erosion/fibrillation of the articular cartilage via x-ray, arthroscopy and/or MRI” value [2] was “no further advancement of erosion/fibrillation of the articular cartilage”.
